According to PubChem BioAssay AID2060618 (Molecular Pharmacology Branch, DTP, NCI, 2025):
pIC50: −log10 of the molar value.

Tested on: 454973-116-R2-J3-PDC spheroids, percent test/control viability
Assay: Anticancer human tumor 454973-116-R2-J3-PDC patient-derived pancreatic carcinoma cell line growth inhibition [CLK]
Conditions: spheroids with HUVEC and MSC; for pIC50: curve of first compound; for viability, T/C: stronger effect = lower value
Outline: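 Multi-cell-type spheroids combined patient-derived tumor cells with HUVEC endothelial cells and human mesenchymal stem cells. Paired agents were dosed in half-log steps down from about clinical Cmax, or from 10 microM where Cmax was unknown.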

[1] = second compound 0.0316 µM, first compound 0.0316 µM
[2] = second compound 0.0316 µM, first compound 0.1 µM
[3] = second compound 0.0316 µM, first compound 0.316 µM
[4] = second compound 0.0316 µM, first compound 1 µM
[5] = second compound 0.0316 µM, first compound 3.16 µM
[6] = second compound 0.0316 µM, first compound 10 µM
[7] = second compound 0.1 µM, first compound 0.0316 µM
[8] = second compound 0.1 µM, first compound 0.1 µM
[9] = second compound 0.1 µM, first compound 0.316 µM
[10] = second compound 0.1 µM, first compound 1 µM
[11] = second compound 0.1 µM, first compound 3.16 µM
[12] = second compound 0.1 µM, first compound 10 µM
[13] = second compound 0.316 µM, first compound 0.0316 µM
[14] = second compound 0.316 µM, first compound 0.1 µM
[15] = second compound 0.316 µM, first compound 0.316 µM
[16] = second compound 0.316 µM, first compound 1 µM
[17] = second compound 0.316 µM, first compound 3.16 µM
[18] = second compound 0.316 µM, first compound 10 µM
[19] = second compound 1 µM, first compound 0.0316 µM
[20] = second compound 1 µM, first compound 0.1 µM
[21] = second compound 1 µM, first compound 0.316 µM
[22] = second compound 1 µM, first compound 1 µM
[23] = second compound 1 µM, first compound 3.16 µM
[24] = second compound 1 µM, first compound 10 µM
[25] = second compound 3.16 µM, first compound 0.0316 µM
[26] = second compound 3.16 µM, first compound 0.1 µM
[27] = second compound 3.16 µM, first compound 0.316 µM
[28] = second compound 3.16 µM, first compound 1 µM
[29] = second compound 3.16 µM, first compound 3.16 µM
[30] = second compound 3.16 µM, first compound 10 µM
[31] = second compound 10 µM, first compound 0.0316 µM
[32] = second compound 10 µM, first compound 0.1 µM
[33] = second compound 10 µM, first compound 0.316 µM
[34] = second compound 10 µM, first compound 1 µM
[35] = second compound 10 µM, first compound 3.16 µM
[36] = second compound 10 µM, first compound 10 µM
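Further: spheroids exposed to compounds for 7 days before readout.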

`C=CC(=O)N1CCN(c2nc(=O)n(-c3c(C)ccnc3C(C)C)c3nc(-c4c(O)cccc4F)c(F)cc23)C(C)C1` (stereo unspecified) + CNC(=O)c1ccc(Nc2nc(OC3CCCC3)c3c(-c4ccc5nc(C)oc5c4)c[nH]c3n2)c(OC)c1 showed a pIC50 (second compound 0.0316 µM) of under 5.00, a pIC50 (second compound 0.1 µM) of under 5.00 and a pIC50 (second compound 0.316 µM) of 7.20. The pIC50 (second compound 1 µM) was over 7.50, the pIC50 (second compound 3.16 µM) was over 7.50 and the pIC50 (second compound 10 µM) was over 7.50. For the same compound, the viability, T/C [1] was 103%, the viability, T/C [2] was 113% and the viability, T/C [3] was 118%. The viability, T/C [4] was 124%, the viability, T/C [5] was 122% and the viability, T/C [6] was 115%. It also gave a viability, T/C [7] of 107%, a viability, T/C [8] of 113% and a viability, T/C [9] of 101%. For the same compound, the viability, T/C [10] was 119%, the viability, T/C [11] was 113% and the viability, T/C [12] was 120%. For the same compound, the viability, T/C [13] was 52%, the viability, T/C [14] was 48.1% and the viability, T/C [15] was 48%. For the same compound, the viability, T/C [16] was 47%, the viability, T/C [17] was 47.5% and the viability, T/C [18] was 45%. For the same compound, the viability, T/C [19] was 28.5%, the viability, T/C [20] was 30.5% and the viability, T/C [21] was 34%. It also gave a viability, T/C [22] of 32.6%, a viability, T/C [23] of 37.3% and a viability, T/C [24] of 31.4%. For the same compound, the viability, T/C [25] was 32.8%, the viability, T/C [26] was 24% and the viability, T/C [27] was 30.9%. For the same compound, the viability, T/C [28] was 30.9%, the viability, T/C [29] was 28.5% and the viability, T/C [30] was 25.4%. The viability, T/C [31] was 25.2%, the viability, T/C [32] was 25.6% and the viability, T/C [33] was 25.6%. For the same compound, the viability, T/C [34] was 26.1%, the viability, T/C [35] was 30.2% and the viability, T/C [36] was 23.5%.

Compound `CCCS(=O)(=O)Nc1ccc(F)c(C(=O)c2c[nH]c3ncc(-c4ccc(Cl)cc4)cc23)c1F` + CNC(=O)c1ccc(Nc2nc(OC3CCCC3)c3c(-c4ccc5nc(C)oc5c4)c[nH]c3n2)c(OC)c1 has a pIC50 (second compound 0.0316 µM) of 5.16, a pIC50 (second compound 0.1 µM) of 5.14 and a pIC50 (second compound 0.316 µM) of 7.50. For the same compound, the pIC50 (second compound 1 µM) was over 7.50, the pIC50 (second compound 3.16 µM) was over 7.50 and the pIC50 (second compound 10 µM) was over 7.50. For the same compound, the viability, T/C [1] was 96%, the viability, T/C [2] was 107% and the viability, T/C [3] was 102%. It also gave a viability, T/C [4] of 126%, a viability, T/C [5] of 107% and a viability, T/C [6] of 23.8%. The viability, T/C [7] was 97.5%, the viability, T/C [8] was 106% and the viability, T/C [9] was 111%. The viability, T/C [10] was 111%, the viability, T/C [11] was 109% and the viability, T/C [12] was 27.9%. For the same compound, the viability, T/C [13] was 48.2%, the viability, T/C [14] was 45.2% and the viability, T/C [15] was 45.5%. The viability, T/C [16] was 51.2%, the viability, T/C [17] was 53% and the viability, T/C [18] was 14.4%. It also gave a viability, T/C [19] of 32.2%, a viability, T/C [20] of 33.6% and a viability, T/C [21] of 33%. It also gave a viability, T/C [22] of 37%, a viability, T/C [23] of 32% and a viability, T/C [24] of 12.9%. It also gave a viability, T/C [25] of 27.9%, a viability, T/C [26] of 27.3% and a viability, T/C [27] of 31.6%. For the same compound, the viability, T/C [28] was 36.7%, the viability, T/C [29] was 29.7% and the viability, T/C [30] was 10.4%. It also gave a viability, T/C [31] of 26.2%, a viability, T/C [32] of 23.9% and a viability, T/C [33] of 25.9%. For the same compound, the viability, T/C [34] was 29.4%, the viability, T/C [35] was 31.9% and the viability, T/C [36] was 9.04%.

`COC1C=CCC(C)C(C)S(=O)(=O)NC(=O)c2ccc3c(c2)N(CC2CCC21)CC1(CCCc2cc(Cl)ccc21)CO3` (stereo unspecified) + CNC(=O)c1ccc(Nc2nc(OC3CCCC3)c3c(-c4ccc5nc(C)oc5c4)c[nH]c3n2)c(OC)c1 gave a pIC50 (second compound 0.0316 µM) of 5.27, a pIC50 (second compound 0.1 µM) of 5.34 and a pIC50 (second compound 0.316 µM) of over 7.50. It also gave a pIC50 (second compound 1 µM) of over 7.50, a pIC50 (second compound 3.16 µM) of over 7.50 and a pIC50 (second compound 10 µM) of over 7.50. The viability, T/C [1] was 99.4%, the viability, T/C [2] was 104% and the viability, T/C [3] was 93.9%. It also gave a viability, T/C [4] of 95%, a viability, T/C [5] of 86.8% and a viability, T/C [6] of 6.26%. It also gave a viability, T/C [7] of 91.8%, a viability, T/C [8] of 98.8% and a viability, T/C [9] of 92.4%. The viability, T/C [10] was 84.3%, the viability, T/C [11] was 70.9% and the viability, T/C [12] was 8.61%. It also gave a viability, T/C [13] of 48.2%, a viability, T/C [14] of 53.7% and a viability, T/C [15] of 42%. It also gave a viability, T/C [16] of 46.1%, a viability, T/C [17] of 46.3% and a viability, T/C [18] of 11.5%. For the same compound, the viability, T/C [19] was 30.2%, the viability, T/C [20] was 23.3% and the viability, T/C [21] was 14.2%. It also gave a viability, T/C [22] of 14.4%, a viability, T/C [23] of 17.6% and a viability, T/C [24] of 14.9%. It also gave a viability, T/C [25] of 24.1%, a viability, T/C [26] of 17.4% and a viability, T/C [27] of 11.2%. It also gave a viability, T/C [28] of 11.9%, a viability, T/C [29] of 13.9% and a viability, T/C [30] of 11.8%. It also gave a viability, T/C [31] of 23.7%, a viability, T/C [32] of 21.5% and a viability, T/C [33] of 12.1%. The viability, T/C [34] was 9.9%, the viability, T/C [35] was 8.86% and the viability, T/C [36] was 9.25%.
